# Data: US20120252852A1 (SANOFI, priority 2011, published 2012)
# What was measured:
# [1] = Level of impurities in dependency on pH and storage time (1 mg/mL, autoclaved one time, stored at 40° C. and 75% RH, HPLC); format: physicochemical
# Experimental: The appropriate pH value was adjusted by using sodium hydroxide solution (1 M sodium hydroxide) or diluted hydrochloric acid (1 M hydrochloric acid). The prepared vials were autoclaved one time and were stored at 40° C. and 75% RH (relative humidity).
# free factor Xa = free factor Xa (Homo sapiens, UniProt P00742); details: cited from earlier work
# [2] = Level of impurities in dependency on Otamixaban concentration and autoclaving (HPLC); format: physicochemical
# Experimental: Liquid pharmaceutical compositions were prepared containing 1, 5 or 50 mg/mL
# The appropriate pH value was adjusted by using sodium hydroxide solution (1 M sodium hydroxide) or diluted hydrochloric acid (1 M hydrochloric acid).
# Sequence of free factor Xa (P00742 235-488 limits assumed): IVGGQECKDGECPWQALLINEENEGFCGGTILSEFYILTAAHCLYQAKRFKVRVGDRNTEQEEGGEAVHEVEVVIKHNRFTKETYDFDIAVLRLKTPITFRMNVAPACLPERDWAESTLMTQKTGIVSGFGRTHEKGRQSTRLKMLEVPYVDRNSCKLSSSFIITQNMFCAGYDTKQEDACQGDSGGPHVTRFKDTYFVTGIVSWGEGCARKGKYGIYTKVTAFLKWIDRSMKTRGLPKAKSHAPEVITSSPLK
# Sequence of free factor Xa (P00742 41-179 partner limits assumed): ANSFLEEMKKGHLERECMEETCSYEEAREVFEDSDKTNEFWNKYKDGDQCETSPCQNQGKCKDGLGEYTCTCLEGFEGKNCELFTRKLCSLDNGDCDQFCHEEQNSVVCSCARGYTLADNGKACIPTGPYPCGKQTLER
smiles,measurement,setting,value
"COC(=O)[C@H](Cc1cccc(C(=N)N)c1)[C@@H](C)NC(=O)c1ccc(-c2cc[n+]([O-])cc2)cc1 (mixture of isomers) [Otamixaban, Methyl (2R,3R)-2-{3-[amino(imino)methyl]benzyl}-3-{[4-(1-oxidopyridin-4-yl)benzoyl]amino}butanoate]",Levels of Formula III versus pH over storage time,[1]; 40° C. and 75% RH,parallel at different pH values
same,Increase of Formula II (carbamimidoyl-benzyl butyric acid),"[1]; pH 2.5, storage 0 months",0.33%
same,Increase of Formula II (carbamimidoyl-benzyl butyric acid),"[1]; pH 2.5, storage 1 month",1.47%
same,Increase of Formula II (carbamimidoyl-benzyl butyric acid),"[1]; pH 2.5, storage 3 months",3.73%
same,Increase of Formula II (carbamimidoyl-benzyl butyric acid),"[1]; pH 2.5, storage 6 months",7.10%
same,Increase of Formula II (carbamimidoyl-benzyl butyric acid),"[1]; pH 3.0, storage 0 months",0.18%
same,Increase of Formula II (carbamimidoyl-benzyl butyric acid),"[1]; pH 3.0, storage 1 month",0.58%
same,Increase of Formula II (carbamimidoyl-benzyl butyric acid),"[1]; pH 3.0, storage 3 months",1.39%
same,Increase of Formula II (carbamimidoyl-benzyl butyric acid),"[1]; pH 3.0, storage 6 months",2.61%
same,Increase of Formula II (carbamimidoyl-benzyl butyric acid),"[1]; pH 3.2, storage 0 months",0.15%
same,Increase of Formula III (carbamoyl-benzyl butyric acid methyl ester),"[1]; pH 3.2, storage 0 months",0.76%
same,Increase of Formula II (carbamimidoyl-benzyl butyric acid),"[1]; pH 3.2, storage 1 month",0.41%
same,Increase of Formula III (carbamoyl-benzyl butyric acid methyl ester),"[1]; pH 3.2, storage 1 month",0.85%
same,Increase of Formula II (carbamimidoyl-benzyl butyric acid),"[1]; pH 3.2, storage 3 months",0.93%
same,Increase of Formula III (carbamoyl-benzyl butyric acid methyl ester),"[1]; pH 3.2, storage 3 months",1.00%
same,Increase of Formula II (carbamimidoyl-benzyl butyric acid),"[1]; pH 3.2, storage 6 months",1.74%
same,Increase of Formula III (carbamoyl-benzyl butyric acid methyl ester),"[1]; pH 3.2, storage 6 months",1.24%
same,Increase of Formula II (carbamimidoyl-benzyl butyric acid),"[1]; pH 3.5, storage 0 months",0.12%
same,Increase of Formula II (carbamimidoyl-benzyl butyric acid),"[1]; pH 3.5, storage 1 month",0.27%
same,Increase of Formula II (carbamimidoyl-benzyl butyric acid),"[1]; pH 3.5, storage 3 months",0.55%
same,Increase of Formula II (carbamimidoyl-benzyl butyric acid),"[1]; pH 3.5, storage 6 months",0.99%
same,Increase of Formula II (carbamimidoyl-benzyl butyric acid),"[1]; pH 3.7, storage 0 months",0.11%
same,Increase of Formula II (carbamimidoyl-benzyl butyric acid),"[1]; pH 3.7, storage 1 month",0.22%
same,Increase of Formula II (carbamimidoyl-benzyl butyric acid),"[1]; pH 3.7, storage 3 months",0.42%
same,Increase of Formula II (carbamimidoyl-benzyl butyric acid),"[1]; pH 3.7, storage 6 months",0.72%
same,Increase of Formula II (carbamimidoyl-benzyl butyric acid),"[1]; pH 4.0, storage 0 months",0.12%
same,Increase of Formula II (carbamimidoyl-benzyl butyric acid),"[1]; pH 4.0, storage 1 month",0.18%
same,Increase of Formula II (carbamimidoyl-benzyl butyric acid),"[1]; pH 4.0, storage 3 months",0.32%
same,Increase of Formula II (carbamimidoyl-benzyl butyric acid),"[1]; pH 4.0, storage 6 months",0.52%
same,Increase of Formula II (carbamimidoyl-benzyl butyric acid),"[1]; pH 4.2, storage 0 months",0.13%
same,Increase of Formula II (carbamimidoyl-benzyl butyric acid),"[1]; pH 4.2, storage 1 month",0.18%
same,Increase of Formula II (carbamimidoyl-benzyl butyric acid),"[1]; pH 4.2, storage 3 months",0.27%
same,Increase of Formula II (carbamimidoyl-benzyl butyric acid),"[1]; pH 4.2, storage 6 months",0.43%
same,Increase of Formula II (carbamimidoyl-benzyl butyric acid),"[1]; pH 4.5, storage 0 months",0.15%
same,Increase of Formula II (carbamimidoyl-benzyl butyric acid),"[1]; pH 4.5, storage 1 month",0.20%
same,Increase of Formula II (carbamimidoyl-benzyl butyric acid),"[1]; pH 4.5, storage 3 months",0.30%
same,Increase of Formula II (carbamimidoyl-benzyl butyric acid),"[1]; pH 4.5, storage 6 months",0.44%
same,Increase of Formula II (carbamimidoyl-benzyl butyric acid),"[1]; pH 4.7, storage 0 months",0.20%
same,Increase of Formula II (carbamimidoyl-benzyl butyric acid),"[1]; pH 4.7, storage 1 month",0.25%
same,Increase of Formula II (carbamimidoyl-benzyl butyric acid),"[1]; pH 4.7, storage 3 months",0.36%
same,Increase of Formula II (carbamimidoyl-benzyl butyric acid),"[1]; pH 4.7, storage 6 months",0.52%
same,Inhibition of free factor Xa,free factor Xa,inhibited
same,Increase of Formula III (carbamoyl-benzyl butyric acid methyl ester),"[2]; pH 4.2-4.3, 5 mg/mL, vial 5 mL, 20 min 123° C., 0 autoclaving",0.2%
same,Increase of Formula III (carbamoyl-benzyl butyric acid methyl ester),"[2]; pH 4.2-4.3, 5 mg/mL, vial 5 mL, 20 min 123° C., 1 autoclaving",0.9%
same,Increase of Formula III (carbamoyl-benzyl butyric acid methyl ester),"[2]; pH 4.2-4.3, 5 mg/mL, vial 5 mL, 20 min 123° C., 2 autoclaving",1.7%
same,Increase of Formula III (carbamoyl-benzyl butyric acid methyl ester),"[2]; pH 4.2-4.3, 5 mg/mL, vial 5 mL, 20 min 123° C., 3 autoclaving",2.5%
same,Increase of Formula III (carbamoyl-benzyl butyric acid methyl ester),"[2]; pH 4.2, 1 mg/mL, vial 50 mL, 20 min […] C., 0 autoclaving",0.4%
same,Increase of Formula III (carbamoyl-benzyl butyric acid methyl ester),"[2]; pH 4.2, 1 mg/mL, vial 50 mL, 20 min […] C., 1 autoclaving",1.3%
same,Increase of Formula III (carbamoyl-benzyl butyric acid methyl ester),"[2]; pH 4.2, 1 mg/mL, vial 50 mL, 20 min […] C., 2 autoclaving",2.3%
same,Increase of Formula III (carbamoyl-benzyl butyric acid methyl ester),"[2]; pH 4.2, 1 mg/mL, vial 50 mL, 25 min 125° C., 0 autoclaving",0.4%
same,Increase of Formula III (carbamoyl-benzyl butyric acid methyl ester),"[2]; pH 4.2, 1 mg/mL, vial 50 mL, 25 min 125° C., 1 autoclaving",1.3%
same,Increase of Formula III (carbamoyl-benzyl butyric acid methyl ester),"[2]; pH 4.2, 5 mg/mL, vial 5 mL, 20 min 123° C., 0 autoclaving",0.3%
same,Increase of Formula III (carbamoyl-benzyl butyric acid methyl ester),"[2]; pH 4.2, 5 mg/mL, vial 5 mL, 20 min 123° C., 1 autoclaving",1.0%
same,Increase of Formula III (carbamoyl-benzyl butyric acid methyl ester),"[2]; pH 4.2, 5 mg/mL, vial 5 mL, 20 min 123° C., 2 autoclaving",1.8%
same,Increase of Formula III (carbamoyl-benzyl butyric acid methyl ester),"[2]; pH 4.2, 5 mg/mL, vial 5 mL, 20 min 123° C., 3 autoclaving",2.6%
same,Increase of Formula III (carbamoyl-benzyl butyric acid methyl ester),"[2]; pH 4.2, 5 mg/mL, vial 50 mL, 25 min 125° C., 0 autoclaving",0.4%
same,Increase of Formula III (carbamoyl-benzyl butyric acid methyl ester),"[2]; pH 4.2, 5 mg/mL, vial 50 mL, 25 min 125° C., 1 autoclaving",1.4%
same,Increase of Formula III (carbamoyl-benzyl butyric acid methyl ester),"[2]; pH 4.2, 50 mg/mL, vial 5 mL, 20 min 123° C., 0 autoclaving",0.3%
same,Increase of Formula III (carbamoyl-benzyl butyric acid methyl ester),"[2]; pH 4.2, 50 mg/mL, vial 5 mL, 20 min 123° C., 1 autoclaving",1.1%
same,Increase of Formula III (carbamoyl-benzyl butyric acid methyl ester),"[2]; pH 4.2, 50 mg/mL, vial 5 mL, 20 min 123° C., 2 autoclaving",1.9%
same,Increase of Formula III (carbamoyl-benzyl butyric acid methyl ester),"[2]; pH 4.2, 50 mg/mL, vial 5 mL, 20 min 123° C., 3 autoclaving",2.7%
